Assay results as given in patent US11524041B2, “Ginkgo diterpene lactone composition” (Jiangsu Kanion Pharmaceutical Co., Ltd., priority 2017, dated 2022).
Structures can show the parent of a compound that is named as a salt.

Experiments:
Format in all cases: in vivo
[1] = system: level of oxidative stress of rats; assay: Detection of oxidative stress in serum of rats given alcohol; conditions: rat serum, alcohol 6 g/kg daily, compositions 3 mg/kg iv, edaravone 6.25 mg/kg iv, daily for 5 weeks, n = 10
Experimental: 2.1 Modeling and administration: Healthy male rats were selected and randomly divided into normal group, model group, positive drug group and Ginkgo diterpene lactone composition groups A-K, With the exception of the normal group, the other groups were orally administrated with alcohol with a daily dose of 6 g/kg. Rats in the positive drug group were administrated with edaravone injection (iv) in a daily dose of 6.25 mg/kg, and rats in the Ginkgo diterpene lactone composition groups A-K were administrated in a daily dose of 3 mg/kg (iv), they were continuously administrated or given alcohol for 5 weeks.
2.2 Detection of oxidative stress: After the administration, rats in each group were anesthetized with 10% chloral hydrate, abdominal aortic blood was collected and then subjected to heparin anticoagulation to separate serum; changes of MDA, SOD, GSH and TAC levels in the serum were detected according to the instructions of the kits, and the protein content of each sample was measured using the BCA protein test kit.
2.3 Statistical analysis: The data are expressed as (x±s). All data are analyzed by one-way ANOVA using SPSS 19.0 software to determine the significance of the difference.

[2] = system: rats; assay: Electric shock avoidance experiment for rats (learned helplessness electric shock model); conditions: compositions 6.26 mg/kg ig, imipramine 33 mg/kg oral, once a day for 35 days, results of the fifth training, X ± S
Description: 2.3 Electric shock avoidance experiment for rats: The anti-depression effect of the drug was observed using a learned helplessness electric shock model. Healthy male rats weighing 180-220 g were selected and randomly divided into normal group, model group, positive drug group and Ginkgo diterpene lactone composition groups A-K, with 10 rats in each group. The rats in the […] were orally administered with the same normal saline every day; the rats in the positive drug group were orally administered with imipramine tablet in a daily dose of 33 mg/kg, and the rats in the Ginkgo diterpene lactone composition groups A-K were administered in a daily dose of 6.26 mg/kg (ig), once a day for 35 consecutive days. The experiment was started 30 minutes after the 30th administration. On the first day of the experiment, “helpless induction” was performed. […] The training was conducted for 5 days, and the number of successful escapes of each rat during training was recorded every day, and the results of the fifth training were counted.
(§1) 2.4 Statistical analysis: The data are expressed as (x±s). All data are analyzed by one-way ANOVA using SPSS 19.0 software to determine the significance of the difference.

[3] = system: mice; assay: Forced swimming experiment for mice; conditions: compositions 9 mg/kg ig, imipramine 50 mg/kg oral, once a day for 5 days, difference of immobility times, X ± S
Experimental: 2.2 Forced swimming experiment for mice: Male mice weighing 20-24 g were selected, grouped and administered in the same manner as in Section 2.1. The experiment was started 30 minutes after the fifth administration. The mice were placed in a graduated cylinder (20 cm in height and 14 cm in diameter) with 30° C. water in the depth of 10 cm. The difference between the two immobility times of the mice themselves were calculated and then statistical analysis was conducted after Ig (X++45) conversion.
as §1

[4] = n = 10, listed as imipramine, hydrochloride

Compound	MDA [1]	SOD [1]	TAC [1]	GSH ([1]; listed as edaravone injection)	MDA ([1]; listed as edaravone injection)	SOD ([1]; listed as edaravone injection)	TAC ([1]; listed as edaravone injection)	Accumulative number of successful escapes ([2]; n = 10, hydrochloride)	Accumulative number of successful escapes [2, 4]	Swimming interval (X + 45) conversion ([3]; n = 10, hydrochloride)	Swimming interval (X + 45) conversion [3, 4]
CC1=NN(c2ccccc2)C(=O)C1 [Edaravone, edaravone]	59.6 ± 20.6 nmol/mg	769.5 ± 55.5 U/mg	243.6 ± 0.9 U/mg	significantly corrected	significantly corrected	significantly corrected	significantly corrected	–	–	–	–
CN(C)CCCN1c2ccccc2CCc2ccccc21 [Imipramine, imipramine hydrochloride]	–	–	–	–	–	–	–	24.5 ± 1.5	significantly increased	4.03 ± 0.05^	significantly prolonged
